In patent US20220162215A1, “COMPOSITIONS AND METHODS OF USING THE SAME FOR TREATMENT OF NEURODEGENERATIVE AND MITOCHONDRIAL DISEASE” (MITOKININ, INC., priority 2019, published 2022):
Where two headings read alike, the source gives them in different places.

Columns and labels:
[1] = test system: HeLa MKYP cells; test: Toxicity / cell death measured by DAPI staining (take-up); format: cell-based
Description: H2O2 treatment was performed as a control for cell death as measured by DAPI staining.
(§1) Briefly, HeLa MKYP cells were plated at 10,000 cells/well in 96 well plates along with compounds at various concentrations. Following 16 hrs of incubation, cells were treated with 1 uM FCCP/oligomycin for 6 hours, then analyzed via FACS for the presence of mitochondria in lysosomes (as determined by an emissions spectrum shift from the pH-sensitive mtKeima tag).

[2] = test system: HeLa MKYP cells; test: Human mitophagy assay (HeLa MKYP, mtKeima FACS, FCCP/oligomycin); format: cell-based
Description: as §1, with “tag). Examples are shown in FIG. 1 through FIG. 13 below.” for “tag).”

[3] = Homo sapiens, HeLa, Table 3, read-out: Potency at 1 μM F/O toxin* (EC50 of mitophagy activation)
[4] = Homo sapiens, HeLa, Table 3 Supplement A, as measured in Table 3, read-out: Potency (EC50 Max Mitophagy) (μM)*

| Compound | Toxicity (% positive for DAPI takeup @ 50 μM) ([1]; Table 3, 50 μM) [%] | EC50 [2, 3] [µM] | Toxicity (% positive for DAPI take-up at 50 μM)* ([1]; Table 3 Supplement A, 50 μM) [%] | EC50 [2, 4] [µM] | also measured |
| --- | --- | --- | --- | --- | --- |
| c1coc(CNc2ncnc3[nH]c(C4CCC4)nc23)c1 [Compound 30] | 3.0 | > 50 | – | – | – |
| CCCCNc1ncnc2[nH]c(C(F)(F)F)cc12 [Compound 1] | – | – | – | – | Toxicity (% positive for DAPI take-up @ 50 μM) ([1]; Table 1, 50 μM): 4.6%; Potency at 1 μM F/O toxin ([2]; Table 1, % activation of mitophagy at 6.3 μM treatment of the compound): 42.3% |
| CC(CNc1ncnc2[nH]cnc12)c1ccccc1 (centres unmarked) [Compound 65] | 28.9 | 3.6 | 28.92 | 3.61 | – |
| Fc1cc(Cl)cc(CNc2ncnc3[nH]c(C(F)(F)F)cc23)c1 [Compound 24] | 4.8 | – | – | – | activation at 6.3 µM ([2]; Homo sapiens, HeLa, 6 h, Table 3, % activation of mitophagy at 6.3 μM treatment of the compound, read-out: Potency at 1 μM F/O toxin*): 51.2% |
| c1ncc(CNc2ncnc3[nH]c(C4CC4)nc23)cn1 [EP-0036050, 8-cyclopropyl-N-(pyrimidin-5-ylmethyl)-9H-purin-6-amine] | – | – | – | > 25 | Toxicity (% positive for DAPI take-up at 50 μM)* ([1]; human, 50 μM): 7.06% |
| CCCCNc1ncnc2[nH]c(C3CCC3)nc12 [Compound 31] | 6.1 | > 50 | – | – | – |
| COc1ccccc1CNc1ncnc2[nH]c(C(F)(F)F)cc12 [Compound 48] | 24.7 | 2 | – | – | – |
| FC(F)(F)c1cc2c(NC3(c4ccccc4)CC3)ncnc2[nH]1 [Compound 11] | – | – | – | – | Toxicity (% positive for DAPI takeup @ 50 μM) ([1]; Table 2, 50 μM): 80.5%; activation at 1.6 µM ([2]; Homo sapiens, HeLa, 6 h, Table 2, % activation of mitophagy at 1.6 μM treatment of the compound, read-out: Potency at 1 μM F/O toxin*): 20.8% |
| FC(F)(F)c1cc2c(N[C@H]3COc4ccccc43)ncnc2[nH]1 [Compound 39] | 22.8 | 1.4 | 27.32 | 1.49 | – |
| c1ccc2c(c1)OCC[C@@H]2Nc1ncnc2[nH]cnc12 [Compound 59] | 17.0 | 1.8 | 19.76 | 1.69 | – |
| OC[C@H](Nc1ncnc2[nH]c(C(F)(F)F)cc12)c1ccccc1 [Compound 76] | 30.4 | 14.7 | 30.45 | 14.7 | – |
| COc1ccccc1CNc1ncnc2nc[nH]c12 [Compound 56] | 12.4 | 10.8 | 12.42 | 10.8 | – |
| c1ccc2c(c1)CC[C@@H]2Nc1ncnc2[nH]cnc12 [Compound 54] | 16.2 | 4.4 | 16.16 | 4.38 | – |
| O=S1(=O)Cc2ccccc2C(Nc2ncnc3[nH]c(C(F)(F)F)cc23)C1 (centres unmarked) [Compound 79] | 13.2 | > 50 | 13.18 | > 25 | – |
| c1ccc2c(c1)OCC[C@H]2Nc1ncnc2[nH]c(C3CC3)cc12 [Compound 111] | 17.3 | 2 | – | – | Max cell death at 25 uM compound, 1 uM FO ([1]; Table 3 Supplement B, 25 uM compound, 1 uM FO): 17.3%; Cell death at 25 μM (no FO) ([1]; Table 3 Supplement B, 25 μM, no FO): 7.26%; EC50 ([2]; Homo sapiens, HeLa, Table 3 Supplement B, read-out: Mitophagy EC50 (HeLa mKeima assay)): 1.98 µM |
| FC(F)(F)c1cc2c(NC3CCCc4ncncc43)ncnc2[nH]1 (centres unmarked) [Compound 45] | 12.0 | > 50 | 11.97 | > 25 | – |
| CN1CC[C@H](Nc2ncnc3[nH]c(C(F)(F)F)cc23)c2ccccc21 [Compound 80] | 28.1 | 1.9 | 8.7 | 1.81 | – |
| COc1ccc(CNc2ncnc3[nH]c(C(F)(F)F)cc23)c(OC)c1 [Compound 51] | 42.6 | 2.1 | – | – | – |
| CC(C)[C@@H](Nc1ncnc2[nH]c(C(F)(F)F)cc12)c1cncnc1 [Compound 26] | 6.8 | 6.9 | 6.82 | 6.85 | – |
| Cc1nc2c(N[C@@H](C)c3ccccc3)ncnc2[nH]1 [Compound 74] | 31.9 | 4.6 | 31.93 | 4.65 | – |
